{"source": "patent US12491246B2", "about": "“Combination therapy of arms and natural killer cells” (KLEO PHARMACEUTICALS, INC., priority 2018, dated 2025)", "key": {"[1]": {"test_system": "non-CIML NK cells", "assay": "NK cell fratricide assay, non-CIML control NK cells", "type": "cell-based", "conditions": "2 hr", "procedure": "(§1) PBMC isolation: Leukopheresis product from a donor with body mass index (BMI) between 19-25, under 50 years old, not on immuno-suppressive drugs for at least 2 weeks with an estimated PBMC cell count of >10^10 was obtained from Key Biologics (subject ID 20982200) and transported at ambient temperature. Leukopheresis bag was wiped down with 70% EtOH, a small slit was made and contents were pipetted off into tubes. Leukopak contents were diluted 1:1 with PBS without Ca++/Mg++ and 20 ml of this mixture was layered on top of 25 mL of Ficoll. Tubes were then centrifuged at 400 g for 30 minutes without brakes. PBMCs were harvested from the interface into separate tubes, and tubes were filled to 50 mL with PBS. Cells were centrifuged for 10 min at 120 g to get rid of platelets. Supernatant was poured off and cells were re-suspended in RPMI 10% FBS at a concentration of 7-10×10^6 cells/ml. Cells were cultured overnight at 37C in a 5% CO2 atmosphere until NK cell isolation.\nNK cell isolation: PBMC were centrifuged at 400 g for 10 min and re-suspended in EasySep buffer. NK cells were isolated using NK cell isolation kits from STEMCELL Technologies according to kit's manufacturers' instructions. NK cell purity and phenotype was assessed by trypan Blue and flow cytometry using the following antibody cocktail: anti-CD56PE, CD3 APC, and viability was determined using staining with Trypan Blue exclusion dye, and by flow cytometry using Near Infra-Red Fixable viability dye (Thermo Fisher). […]\nPurity and viability of NK cells and CIML NK cells: Among other things, the present disclosure provides highly pure and viable NK cell populations following isolation from PBMC. […] After an overnight incubation, purity and viability were assessed in the cultured cell populations. […]\n(§2) NK cell fratricide (death directed at NK cells in the same culture) was assessed by flow cytometry following a 2 hr incubation with the CD38 ARM at indicated concentrations in the presence or absence of 500 μg/ml intravenous immune globulin (IVIG). […]"}, "[2]": {"test_system": "CD56+CD138− CIML NK cells", "assay": "NK cell fratricide in patient bone marrow co-incubation", "type": "cell-based, human", "conditions": "co-incubated with patients bone marrow for 4 hrs; FIG. 4", "procedure": "Patient bone marrow (3 ml) and blood (20 ml) were shipped at ambient temperature from Discovery Biosciences. Bone marrow was diluted 1:1 with PBS, and 50 μl of bone marrow-PBS mixture was aliquoted into 96 deep well plates. Bone marrow cells were incubated overnight until CIML cells were added next day.\nPBMC were isolated from blood by Ficoll density gradient centrifugation. PBMC were centrifuged at 400 g for 10 min and re-suspended in EasySep buffer. NK cells were isolated using NK cell isolation kits from STEMCELL Technologies according to kit's manufacturers' instructions.\nNK cells were re-suspended at 1×10^6 cells/ml in XVIVO15, 10% Human Serum, IL-15 (50 ng/ml), IL-12 (10 ng/ml), IL-18(50 ng/ml), and incubated for 18 hrs. Following overnight incubation with cytokines, NK cells were washed twice with PBS 5% Human Serum Albumin, counted and re-suspended at a cell density of 2×10^5 cells/ml of XVIVO15 media. Twenty microliters (4000 cells) were added per each well containing 50 μl of bone marrow: PBS mixture. […]\nThe assay was then incubated for 4 hrs. at 37° C. […] Finally, cells were re-suspended in 200 μl of FACS Buffer and analyzed using Attune Flow Cytometer. Data were analyzed using FlowJo software and graphed using GraphPad Prism. […]"}, "[3]": {"test_system": "CIML NK cells", "assay": "CIML NK cell fratricide assay", "type": "cell-based", "procedure": "as §1\nNK cell isolation: PBMC were centrifuged at 400 g for 10 min and re-suspended in EasySep buffer. NK cells were isolated using NK cell isolation kits from STEMCELL Technologies according to kit's manufacturers' instructions. NK cell purity and phenotype was assessed by trypan Blue and flow cytometry using the following antibody cocktail: anti-CD56PE, CD3 APC, and viability was determined using staining with Trypan Blue exclusion dye, and by flow cytometry using Near Infra-Red Fixable viability dye (Thermo Fisher).\nCIML NK cell generation: Isolated NK cells were re-suspended at 2×10^6 cells/ml in XVIVO 10% Human Serum and the following concentrations IL-15 (50 ng/ml), IL-12 (10 ng/ml), IL-18(50 ng/ml) for 12 to 18 hrs. […]\nas §2"}}, "data": [{"smiles": "CCCCC[C@@H]1NC(=O)[C@H](CCCNC(=N)N)NC(=O)[C@H](C)NC(=O)CSC[C@@H](C(=O)NCCOCCOCCOCCOCCOCCOCCn2nnc3c2CCC2C(CC3)C2COC(=O)N2CCC(C(=O)NCC(=O)N[C@H](CCC(=O)N[C@H](CCC(=O)N[C@H](CCC(=O)O)C(=O)N[C@H](CCC(=O)N[C@H](CCC(=O)NCC(=O)NCC(=O)N[C@@H](CC(=O)O)C(=O)N[C@H]3CSSC[C@@H](C(=O)N[C@H](C(=O)O)[C@@H](C)O)NC(=O)[C@H](Cc4c[nH]c5ccccc45)NC(=O)[C@H](C(C)C)NC(=O)[C@H](CC(C)C)NC(=O)[C@H](CCC(=O)O)NC(=O)CNC(=O)[C@H](CC(C)C)NC(=O)[C@H](Cc4c[nH]cn4)NC(=O)[C@H](Cc4c[nH]c5ccccc45)NC(=O)[C@H](C)NC3=O)C(=O)O)C(=O)O)C(=O)O)C(=O)O)CC2)NC(=O)[C@H](CC(=O)O)NC(=O)[C@H](CCCCC)NC(=O)[C@H](Cc2ccc(-c3ccccc3)cc2)NC(=O)[C@H](CC(C)C)NC(=O)[C@H](C(C)C)NC(=O)CNC(=O)[C@H](CC(=O)O)NC(=O)[C@H](Cc2c[nH]cn2)NC(=O)[C@H](Cc2ccc(O)cc2)NC1=O", "note": "(some centres unmarked) [CD38 ARM]", "values": [{"measurement": "increase in dead NK cells", "setting": "[1]; 25 uM vs DMSO control", "value": 1.7, "unit": "%"}, {"measurement": "increase in dead NK cells", "setting": "[1]; highest concentration with IVIG vs DMSO IVIG control", "value": 0.93, "unit": "%"}, {"measurement": "frequencies of CD56+CD138− CIML NK cells (NK cell fratricide)", "setting": "[2]", "value": "did not change"}, {"measurement": "increase in the percentage of dead NK cells", "setting": "[3]; CIML NK cells, +/−IVIG, 2 hours post-incubation", "value": "no increase"}, {"measurement": "NK cell fratricide (data normalized to DMSO treated control)", "setting": "[3]; even the highest doses, FIG. 1 (B)", "value": "no apparent NK cell fratricide was detected"}]}]}
